In patent US10414763B2 (CANCER RESEARCH TECHNOLOGY LIMITED, priority 2014, dated 2019):

molecular target: T1, full-length human PKCι (Homo sapiens, UniProt P41743); assay: PKCι IC50 IMAP fluorescence polarisation assay, full-length enzyme, 150 μM ATP; format: biochemical; conditions: read-out: IC50 in IMAP assay against full length PKCi at 150 μM ATP
T1 construct: Recombinant, full-length human PKCι expressed in Sf21 insect cells is also commercially available; purchased EMD Millipore; host or cells: Sf21 insect cells (baculovirus)
T1 sequence (P41743 1-596): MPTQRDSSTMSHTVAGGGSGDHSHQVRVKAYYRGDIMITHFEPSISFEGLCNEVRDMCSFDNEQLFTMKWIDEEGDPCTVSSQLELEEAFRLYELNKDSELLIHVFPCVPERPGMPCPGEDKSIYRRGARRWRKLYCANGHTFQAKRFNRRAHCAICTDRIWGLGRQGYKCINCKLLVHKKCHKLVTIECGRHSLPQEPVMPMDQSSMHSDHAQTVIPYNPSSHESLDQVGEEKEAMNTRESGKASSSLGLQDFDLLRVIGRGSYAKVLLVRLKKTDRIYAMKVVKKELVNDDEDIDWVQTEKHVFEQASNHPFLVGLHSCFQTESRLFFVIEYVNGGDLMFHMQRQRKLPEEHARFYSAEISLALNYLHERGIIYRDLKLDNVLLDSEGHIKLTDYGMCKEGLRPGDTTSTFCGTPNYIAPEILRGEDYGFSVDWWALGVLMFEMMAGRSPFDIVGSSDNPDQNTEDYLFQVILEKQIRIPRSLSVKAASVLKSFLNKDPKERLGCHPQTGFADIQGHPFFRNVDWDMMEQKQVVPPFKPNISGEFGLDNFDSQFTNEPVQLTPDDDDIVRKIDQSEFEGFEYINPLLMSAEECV
In short: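 IMAP fluorescence polarisation kinase assay: 15 pM baculovirus-expressed human PKCiota with 100 nM FAM-pseudosubstrate peptide and 150 μM ATP, 1 h at 25 °C. IMAP detection reagent then 2 h at 25 °C before FP measurement. Inhibition referenced to no-compound and no-enzyme controls for IC50 fitting.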

Row | Compound | IC50
1 | C[C@@H]1CNCC[C@H]1Nc1nc(-c2ccnc(Nc3ncccc3F)c2)nc2cncc(C3CCC3)c12 (racemic) [Example 289, {5-Cyclobutyl-2-[2-(3-fluoro-pyridin-2-ylamino)-pyridin-4-yl]-pyrido[3,4-d]pyrimidin-4-yl}-(rac-(3R,4R)-3-methyl-piperidin-4-yl)-amine] | < 100 nM
2 | C[C@@H]1CNCC[C@H]1Nc1nc(-c2ccnc(Nc3ncc(F)cc3F)c2)nc2cncc(C3CCC3)c12 (racemic) [Example 290, {5-Cyclobutyl-2-[2-(3,5-difluoro-pyridin-2-ylamino)-pyridin-4-yl]-pyrido[3,4-d]pyrimidin-4-yl}-(rac-(3R,4R)-3-methyl-piperidin-4-yl)-amine] | < 100 nM
3 | C[C@@H]1CNCC[C@H]1Nc1nc(-c2ccnc(Nc3nc(F)cc(F)c3F)c2)nc2cncc(C3CCC3)c12 (racemic) [Example 291, {5-Cyclobutyl-2-[2-(3,4,6-trifluoro-pyridin-2-ylamino)-pyridin-4-yl]-pyrido[3,4-d]pyrimidin-4-yl}-(rac-(3R,4R)-3-methyl-piperidin-4-yl)-amine] | < 100 nM
4 | O[C@H]1CNCC[C@H]1Nc1nc(-c2ccnc(Nc3ncccc3F)c2)nc2cncc(C3CCC3)c12 (racemic) [Example 292, rac-(3S,4R)-4-{5-Cyclobutyl-2-[2-(3-fluoro-pyridin-2-ylamino)-pyridin-4-yl]-pyrido[3,4-d]pyrimidin-4-ylamino}-piperidin-3-ol] | < 100 nM
5 | O[C@H]1CNCC[C@H]1Nc1nc(-c2ccnc(Nc3ncc(F)cc3F)c2)nc2cncc(C3CCC3)c12 (racemic) [Example 293, rac-(3S,4R)-4-{5-Cyclobutyl-2-[2-(3,5-difluoro-pyridin-2-ylamino)-pyridin-4-yl]-pyrido[3,4-d]pyrimidin-4-ylamino}-piperidin-3-ol] | < 100 nM
6 | O[C@H]1CNCC[C@H]1Nc1nc(-c2ccnc(Nc3nc(F)cc(F)c3F)c2)nc2cncc(C3CCC3)c12 (racemic) [Example 294, rac-(3S,4R)-4-{5-Cyclobutyl-2-[2-(3,4,6-trifluoro-pyridin-2-ylamino)-pyridin-4-yl]-pyrido[3,4-d]pyrimidin-4-ylamino}-piperidin-3-ol] | < 100 nM
7 | C[C@@H]1CNCC[C@@H]1Nc1nc(-c2ccnc(Nc3nc(F)cc(F)c3F)c2)nc2cncc(C3CCC3)c12 (racemic) [Example 295, {5-Cyclobutyl-2-[2-(3,4,6-trifluoro-pyridin-2-ylamino)-pyridin-4-yl]-pyrido[3,4-d]pyrimidin-4-yl}-(rac-(3R,4S)-3-methyl-piperidin-4-yl)-amine] | < 100 nM
8 | O[C@@H]1CNCC[C@H]1Nc1nc(-c2ccnc(Nc3nc(F)cc(F)c3F)c2)nc2cncc(C3CCC3)c12 (racemic) [Example 296, rac-(3R,4R)-4-{5-Cyclobutyl-2-[2-(3,4,6-trifluoro-pyridin-2-ylamino)-pyridin-4-yl]-pyrido[3,4-d]pyrimidin-4-ylamino}-piperidin-3-ol] | < 100 nM
9 | C[C@@H]1CNCC[C@@H]1Nc1nc(-c2ccnc(Nc3ncccc3F)c2)nc2cncc(C3CC3)c12 (racemic) [Example 299, {5-Cyclopropyl-2-[2-(3-fluoro-pyridin-2-ylamino)-pyridin-4-yl]-pyrido[3,4-d]pyrimidin-4-yl}-(rac-(3R,4S)-3-methyl-piperidin-4-yl)-amine] | 100 to 1000 nM
10 | C[C@@H]1CNCC[C@@H]1Nc1nc(-c2ccnc(Nc3ncc(F)cc3F)c2)nc2cncc(C3CC3)c12 (racemic) [Example 300, {5-Cyclopropyl-2-[2-(3,5-difluoro-pyridin-2-ylamino)-pyridiri-4-yl]-pyrido[3,4-d]pyrimidin-4-yl}-(rac-(3R,4S)-3-methyl-piperidin-4-yl)-amine] | 100 to 1000 nM
11 | C[C@@H]1CNCC[C@@H]1Nc1nc(-c2ccnc(Nc3nc(F)cc(F)c3F)c2)nc2cncc(C3CC3)c12 (racemic) [Example 301, {5-Cyclopropyl-2-[2-(3,4,6-trifluoro-pyridin-2-ylamino)-pyridin-4-yl]-pyrido[3,4-d]pyrimidin-4-yl}-(rac-(3R,4S)-3-methyl-piperidin-4-yl)-amine] | < 100 nM
12 | C[C@@H]1CNCC[C@H]1Nc1nc(-c2ccnc(Nc3ncccc3F)c2)nc2cncc(C3CC3)c12 (racemic) [Example 302, {5-Cyclopropyl-2-[2-(3-fluoro-pyridin-2-ylamino)-pyridin-4-yl]-pyrido[3,4-d]pyrimidin-4-yl}-(rac-(3R,4R)-3-methyl-piperidin-4-yl)-amine] | < 100 nM
13 | C[C@@H]1CNCC[C@H]1Nc1nc(-c2ccnc(Nc3ncc(F)cc3F)c2)nc2cncc(C3CC3)c12 (racemic) [Example 303, {5-Cyclopropyl-2-[2-(3,5-difluoro-pyridin-2-ylamino)-pyridin-4-yl]-pyrido[3,4-d]pyrimidin-4-yl}-(rac-(3R,4R)-3-methyl-piperidin-4-yl)-amine] | < 100 nM
14 | C[C@@H]1CNCC[C@H]1Nc1nc(-c2ccnc(Nc3nc(F)cc(F)c3F)c2)nc2cncc(C3CC3)c12 (racemic) [Example 304, {5-Cyclopropyl-2-[2-(3,4,6-trifluoro-pyridin-2-ylamino)-pyridin-4-yl]-pyrido[3,4-d]pyrimidin-4-yl}-(rac-(3R,4R)-3-methyl-piperidin-4-yl)-amine] | < 100 nM
15 | O[C@H]1CNCC[C@H]1Nc1nc(-c2ccnc(Nc3ncccc3F)c2)nc2cncc(C3CC3)c12 (racemic) [Example 305, rac-(3S,4R)-4-{5-Cyclopropyl-2-[2-(3-fluoro-pyridin-2-ylamino)-pyridin-4-yl]-pyrido[3,4-d]pyrimidin-4-ylamino}-piperidin-3-ol] | 100 to 1000 nM
16 | O[C@H]1CNCC[C@H]1Nc1nc(-c2ccnc(Nc3ncc(F)cc3F)c2)nc2cncc(C3CC3)c12 (racemic) [Example 306, rac-(3S,4R)-4-{5-Cyclopropyl-2-[2-(3,5-difluoro-pyridin-2-ylamino)-pyridin-4-yl]-pyrido[3,4-d]pyrimidin-4-ylamino}-piperidin-3-ol] | 100 to 1000 nM
17 | O[C@H]1CNCC[C@H]1Nc1nc(-c2ccnc(Nc3nc(F)cc(F)c3F)c2)nc2cncc(C3CC3)c12 (racemic) [Example 307, rac-(3S,4R)-4-{5-Cyclopropyl-2-[2-(3,4,6-trifluoro-pyridin-2-ylamino)-pyridin-4-yl]-pyrido[3,4-d]pyrimidin-4-ylamino}-piperidin-3-ol] | < 100 nM
18 | O[C@@H]1CNCC[C@H]1Nc1nc(-c2ccnc(Nc3ncccc3F)c2)nc2cncc(C3CC3)c12 (racemic) [Example 308, rac-(3R,4R)-4-{5-Cyclopropyl-2-[2-(3-fluoro-pyridin-2-ylamino)-pyridin-4-yl]-pyrido[3,4-d]pyrimidin-4-ylamino}-piperidin-3-ol] | 100 to 1000 nM
19 | O[C@@H]1CNCC[C@H]1Nc1nc(-c2ccnc(Nc3ncc(F)cc3F)c2)nc2cncc(C3CC3)c12 (racemic) [Example 309, rac-(3R,4R)-4-{5-Cyclopropyl-2-[2-(3,5-difluoro-pyridin-2-ylamino)-pyridin-4-yl]-pyrido[3,4-d]pyrimidin-4-ylamino}-piperidin-3-ol] | < 100 nM
20 | O[C@@H]1CNCC[C@H]1Nc1nc(-c2ccnc(Nc3nc(F)cc(F)c3F)c2)nc2cncc(C3CC3)c12 (racemic) [Example 310, rac-(3R,4R)-4-{5-Cyclopropyl-2-[2-(3,4,6-trifluoro-pyridin-2-ylamino)-pyridin-4-yl]-pyrido[3,4-d]pyrimidin-4-ylamino}-piperidin-3-ol] | < 100 nM
21 | Cc1nc(Nc2cc(-c3nc(N[C@H]4CCNC[C@H]4C)c4c(C5CCC5)cncc4n3)ccn2)ccc1C#N (racemic) [Example 311, 6-{4-[5-Cyclobutyl-4-(rac-(3R,4S)-3-methyl-piperidin-4-ylamino)-pyrido[3,4-d]pyrimidin-2-yl]-pyridin-2-ylamino}-2-methyl-nicotinonitrile] | < 100 nM
22 | Cc1nc(Nc2cc(-c3nc(N[C@@H]4CCNC[C@H]4C)c4c(C5CCC5)cncc4n3)ccn2)ccc1C#N (racemic) [Example 312, 6-{4-[5-Cyclobutyl-4-(rac-(3R,4R)-3-methyl-piperidin-4-ylamino)-pyrido[3,4-d]pyrimidin-2-yl]-pyridin-2-ylamino}-2-methyl-nicotinonitrile] | < 100 nM
23 | Cc1nc(Nc2cc(-c3nc(N[C@@H]4CCNC[C@@H]4O)c4c(C5CCC5)cncc4n3)ccn2)ccc1C#N (racemic) [Example 313, 6-{4-[5-Cyclobutyl-4-(rac-(3S,4R)-3-hydroxy-piperidin-4-ylamino)-pyrido[3,4-d]pyrimidin-2-yl]-pyridin-2-ylamino}-2-methyl-nicotinonitrile] | < 100 nM
24 | Cc1nc(Nc2cc(-c3nc(N[C@@H]4CCNC[C@H]4O)c4c(C5CCC5)cncc4n3)ccn2)ccc1C#N (racemic) [Example 314, 6-{4-[5-Cyclobutyl-4-(rac-(3R,4R)-3-hydroxy-piperidin-4-ylamino)-pyrido[3,4-d]pyrimidin-2-yl]-pyridin-2-ylamino}-2-methyl-nicotinonitrile] | < 100 nM
